Entries after “also recorded” stand apart in the source; their conditions may differ.
Tests used:
[1] = test system: Raji Burkitt's lymphoma cells; experiment: Mouse xenograft study, tumor volume and tumor weight; assay type: in vivo; conditions: Raji xenograft in mice, 30 mg/kg daily; for final tumor mass: tumor mass measured at day 29, relative to vehicle; for tumor growth over time (tumor volume): ~20 days of treatment, relative to vehicle
Experimental: (§1) Protocols follow those described in the literature.^4 Mice were transplanted with cultured tumor cells and, after an incubation period (typically 10 days), mice were left untreated or were treated daily with a 30 mg/kg dose of the test compound. Tumor volumes were measured with calipers over ˜20 days of treatment. Tumors were excised and weighed at the end of treatment. In two experiments using Raji Burkitt's lymphoma cells^4, the compounds studied were the product of example 9 (FIG. 3), code named SR-11105, and the product of example 21 (FIG. 4), code named SR-13779.

[2] = Mouse xenograft study, animal body weight; assay type: in vivo; conditions: Raji xenograft mice, 30 mg/kg daily, over the course of the study
Experimental: as §1

[3] = test system: Raji (Burkitt's) lymphoma cells; experiment: MTT assay for 4-day viability of Raji (Burkitt's) lymphoma cells; assay type: cell-based; conditions: Homo sapiens, 96 h, Raji cells (highly express MCT1), read-out: approximate potency (EC50)
Excerpt: Specific Examples 1-52 of compounds of the invention, with estimated EC50 values determined using an MTT assay for 4-day viability of Raji (Burkitt's) lymphoma cells, a cell line known to highly express MCT1 and to be sensitive to small molecule MCT inhibitors,^4 are shown in Table 2. Assay protocols follow those described in the literature.^4 Other assays that are not described here but that are standard in the field, such as an assay for competitive inhibition of transport of radiolabeled lactic acid, an MCT substrate, may also be useful in establishing mechanism of action of these compounds.

EC50 [3] [nM] | Structure (SMILES) | final tumor mass [1] | tumor growth over time (tumor volume) [1] | animal body weight [2] | final tumor mass ([1]; listed as SR-13779)
≤ 20 | Cc1n[nH]c(C)c1Cc1sc2c(c1-c1ccc(F)c(CO)c1)c(=O)n(C)c(=O)n2CC(C)C [Example 9, 6-((3,5-dimethyl-1H-pyrazol-4-yl)methyl)-5-(4-fluoro-3-(hydroxymethyl)phenyl)-1-isobutyl-3-methylthieno[2,3-d]pyrimidine-2,4(1H,3H)-dione] | significant reduction in final tumor mass | significant reduction of tumor growth rate | maintained their body weight | 
≤ 20 | Cc1n[nH]c(C)c1Cc1sc2c(c1-c1ccc(F)c(CO)c1F)c(=O)n(C1CC1)c(=O)n2CC(C)C [Example 21, 3-cyclopropyl-5-(2,4-difluoro-3-(hydroxymethyl)phenyl)-6-((3,5-dimethyl-1H-pyrazol-4-yl)methyl)-1-isobutylthieno[2,3-d]pyrimidine-2,4(1H,3H)-dione] |  | effectively blocked tumor growth | maintained their body weight | significant reduction in final tumor mass; also recorded: more pronounced effect

Source: patent publication US10329303B2, “Heterocyclic inhibitors of monocarboxylate transporter” (THE SCRIPPS RESEARCH INSTITUTE, priority 2015, dated 2019)
